Patent US20230398130A1, “METHODS AND COMPOSITIONS FOR DIFFERENTIATING STEM CELLS” (Massachusetts Institute of Technology, priority 2020, published 2023)

Experiments:
ISC-enriched organoids [1] = assay: Secondary (validation) screen, 384-well 2.5-D, ENR+CD 6 days, n=8 wells, vs ENR+CD+DMSO control: ATP (CTG); assay type: cell-based, murine; design: key to Dose.FC.CTG: log10 fold change vs median of vehicle control wells
Method: (§1) Drugs were tested at a narrowed dose range around each treatment's identified optimal dose from the primary screen (4× below, 2× above and below).
(§2) High-throughput screening.
(§3) Secondary lysozyme secretion assay screen. Confirmatory secondary screening with primary hits was performed using the above 384-well plate method. The screen was conducted with 4-plate replicates with a base media of ENR+CD. Media was supplemented with compound at day 0 and day 3 (n=8 well replicates per dose) at four different doses: two-fold above, two-fold below, and four-fold below the optimal final dose for each respective treatment. Additionally, each plate carried a large number of ENR+DMSO or ENR+CD+DMSO (vehicle) control wells (n=100 for ATP, and n=25 for LYZ.NS and LYZ.S) for robust normalization. ATP, non-stimulated lysozyme activity and CCh-stimulated lysozyme activity was again measured and the collected data was again processed in a custom R-script, per primary screen with slight modification. Values were log10 transformed, and a plate-wise FC was calculated for each well based on the median value of ENR+CD+DMSO (vehicle) control wells to normalize plate to plate variability.

ISC-enriched organoids [2] = assay: Secondary (validation) screen, 384-well 2.5-D, ENR+CD 6 days, n=8 wells, vs ENR+CD+DMSO control: carbachol-induced lysozyme secretion (LYZ.S); assay type: cell-based, murine
Method: as §1, §2, §3

ISC-enriched organoids [3] = assay: Primary screen, 384-well 2.5-D organoid differentiation (ENR+CD, 6 days, Target Selective Inhibitor Library, vs whole-plate median): ATP (CellTiter-Glo 3D, CTG); details: primary screen; for Dose.FC.CTG (log 2 fold change): vs plate median
ISC-enriched organoids [4] = assay: Secondary (validation) screen, 384-well 2.5-D, ENR+CD 6 days, n=8 wells, vs ENR+CD+DMSO control: basal lysozyme secretion (LYZ.NS); assay type: cell-based, murine; design: key to Dose.FC.LYZ.NS: log10 fold change vs median of vehicle control wells
Method: as §1, §2, §3

ISC-enriched organoids [5] = assay: Primary screen, 384-well 2.5-D organoid differentiation (ENR+CD, 6 days): basal lysozyme secretion (LYZ.NS); assay type: cell-based, murine; details: primary screen; for Dose.FC.LYZ.NS (log 2 fold change): vs plate median
Excerpt: as §2

ISC-enriched organoids [6] = assay: Primary screen, 384-well 2.5-D organoid differentiation (ENR+CD, 6 days): carbachol-induced lysozyme secretion (LYZ.S); assay type: cell-based, murine; details: primary screen, vs plate median
Excerpt: as §2

N#CC[C@H](C1CCCC1)n1cc(-c2ncnc3[nH]ccc23)cn1 [Ruxolitinib (INCB018424), Ruxolitinib]
Z.CTG (ISC-enriched organoids [1]; Dose 2.50 uM): −0.128 | repSSMD.CTG (ISC-enriched organoids [1]; Dose 2.50 uM): −0.090 | Z.CTG (ISC-enriched organoids [1]; Dose 5.00 uM): −2.016 | repSSMD.CTG (ISC-enriched organoids [1]; Dose 5.00 uM): −1.168 | Z.CTG (ISC-enriched organoids [1]; Dose 20.00 uM): 1.496 | repSSMD.CTG (ISC-enriched organoids [1]; Dose 20.00 uM): 0.952 | Z.CTG (ISC-enriched organoids [1]; dose 10.00 uM): −1.380 | repSSMD.CTG (ISC-enriched organoids [1]; dose 10.00 uM): −1.030 | Z.LYZ.S (ISC-enriched organoids [2]; Dose 2.50 uM): −1.400 | repSSMD.LYZ.S (ISC-enriched organoids [2]; Dose 2.50 uM): −1.806 | Z.LYZ.S (ISC-enriched organoids [2]; Dose 5.00 uM): −1.667 | repSSMD.LYZ.S (ISC-enriched organoids [2]; Dose 5.00 uM): −2.281 | Z.LYZ.S (ISC-enriched organoids [2]; Dose 20.00 uM): 0.208 | repSSMD.LYZ.S (ISC-enriched organoids [2]; Dose 20.00 uM): 0.382 | Z.LYZ.S (ISC-enriched organoids [2]; dose 10.00 uM): −1.289 | repSSMD.LYZ.S (ISC-enriched organoids [2]; dose 10.00 uM): −2.212 | Z.CTG (standard z score) (ISC-enriched organoids [3]; Dose 0.08 uM): 1.093 | Z.CTG (standard z score) (ISC-enriched organoids [3]; Dose 0.40 uM): 0.867 | Z.CTG (standard z score) (ISC-enriched organoids [3]; Dose 2.00 uM): 1.062 | Z.CTG (standard z score) (ISC-enriched organoids [3]; Dose 10.00 uM): 1.140 | Z.LYZ.NS (ISC-enriched organoids [4]; Dose 2.50 uM): −1.251 | repSSMD.LYZ.NS (ISC-enriched organoids [4]; Dose 2.50 uM): −1.701 | Z.LYZ.NS (ISC-enriched organoids [4]; Dose 5.00 uM): −1.098 | repSSMD.LYZ.NS (ISC-enriched organoids [4]; Dose 5.00 uM): −1.569 | Z.LYZ.NS (ISC-enriched organoids [4]; Dose 20.00 uM): 0.522 | repSSMD.LYZ.NS (ISC-enriched organoids [4]; Dose 20.00 uM): 0.930 | Z.LYZ.NS (ISC-enriched organoids [4]; dose 10.00 uM): −0.671 | repSSMD.LYZ.NS (ISC-enriched organoids [4]; dose 10.00 uM): −1.103

NC(=O)c1ccc(-c2nc(-c3ccccn3)c(-c3ccc4c(c3)OCO4)[nH]2)cc1 [SB431542]
Dose.FC.CTG (ISC-enriched organoids [1]; Dose 0.06 uM): 0.160 | Z.CTG (ISC-enriched organoids [1]; Dose 0.06 uM): 1.439 | repSSMD.CTG (ISC-enriched organoids [1]; Dose 0.06 uM): 0.654 | Dose.FC.CTG (ISC-enriched organoids [1]; Dose 0.24 uM): 0.023 | Z.CTG (ISC-enriched organoids [1]; Dose 0.24 uM): 0.206 | repSSMD.CTG (ISC-enriched organoids [1]; Dose 0.24 uM): 0.141 | Dose.FC.CTG (ISC-enriched organoids [1]; Dose 0.48 uM): 0.083 | Z.CTG (ISC-enriched organoids [1]; Dose 0.48 uM): 0.752 | repSSMD.CTG (ISC-enriched organoids [1]; Dose 0.48 uM): 0.527 | Dose.FC.CTG (ISC-enriched organoids [1]; Dose […]): 0.120 | Z.LYZ.S (ISC-enriched organoids [2]; Dose 0.06 uM): 0.514 | log10 fold change in stimulated lysozyme secretion vs vehicle control (ISC-enriched organoids [2]; Dose 0.06 uM): 0.067 | repSSMD.LYZ.S (ISC-enriched organoids [2]; Dose 0.06 uM): 0.855 | Z.LYZ.S (ISC-enriched organoids [2]; Dose 0.24 uM): 0.211 | log10 fold change in stimulated lysozyme secretion vs vehicle control (ISC-enriched organoids [2]; Dose 0.24 uM): 0.027 | repSSMD.LYZ.S (ISC-enriched organoids [2]; Dose 0.24 uM): 0.301 | Z.LYZ.S (ISC-enriched organoids [2]; Dose 0.48 uM): −0.387 | log10 fold change in stimulated lysozyme secretion vs vehicle control (ISC-enriched organoids [2]; Dose 0.48 uM): −0.050 | repSSMD.LYZ.S (ISC-enriched organoids [2]; Dose 0.48 uM): −0.449 | log10 fold change in stimulated lysozyme secretion vs vehicle control (ISC-enriched organoids [2]; Dose […]): 0.072 | Z.LYZ.NS (standard z score) (ISC-enriched organoids [5]; Dose 0.08 uM): 1.225 | Dose.FC.LYZ.NS (log 2 fold change) (ISC-enriched organoids [5]; Dose 0.08 uM): 0.141 | Z.LYZ.NS (standard z score) (ISC-enriched organoids [5]; Dose 0.40 uM): 1.514 | Dose.FC.LYZ.NS (log 2 fold change) (ISC-enriched organoids [5]; Dose 0.40 uM): 0.174 | Z.LYZ.NS (standard z score) (ISC-enriched organoids [5]; Dose 2.00 uM): 1.632 | Dose.FC.LYZ.NS (log 2 fold change) (ISC-enriched organoids [5]; Dose 2.00 uM): 0.187 | Z.LYZ.NS (standard z score) (ISC-enriched organoids [5]; Dose 10.00 uM): 0.346 | Dose.FC.LYZ.NS (log 2 fold change) (ISC-enriched organoids [5]; Dose 10.00 uM): 0.040 | Z.CTG (standard z score) (ISC-enriched organoids [3]; Dose 0.08 uM): 0.907 | Dose.FC.CTG (log 2 fold change) (ISC-enriched organoids [3]; Dose 0.08 uM): 0.380 | Z.CTG (standard z score) (ISC-enriched organoids [3]; Dose 0.40 uM): 1.130 | Dose.FC.CTG (log 2 fold change) (ISC-enriched organoids [3]; Dose 0.40 uM): 0.473 | Z.CTG (standard z score) (ISC-enriched organoids [3]; Dose 2.00 uM): 0.754 | Dose.FC.CTG (log 2 fold change) (ISC-enriched organoids [3]; Dose 2.00 uM): 0.316 | Z.CTG (standard z score) (ISC-enriched organoids [3]; Dose 10.00 uM): 0.370 | Dose.FC.CTG (log 2 fold change) (ISC-enriched organoids [3]; Dose 10.00 uM): 0.155 | Dose.FC.LYZ.S (log 2 fold change) (ISC-enriched organoids [6]; Dose 0.08 uM): 0.135 | Dose.FC.LYZ.S (log 2 fold change) (ISC-enriched organoids [6]; Dose 0.40 uM): 0.309 | Dose.FC.LYZ.S (log 2 fold change) (ISC-enriched organoids [6]; Dose 2.00 uM): 0.223 | Dose.FC.LYZ.S (log 2 fold change) (ISC-enriched organoids [6]; Dose 10.00 uM): 0.126 | Dose.FC.LYZ.NS (ISC-enriched organoids [4]; Dose 0.06 uM): 0.089 | Z.LYZ.NS (ISC-enriched organoids [4]; Dose 0.06 uM): 0.709 | repSSMD.LYZ.NS (ISC-enriched organoids [4]; Dose 0.06 uM): 1.073 | Dose.FC.LYZ.NS (ISC-enriched organoids [4]; Dose 0.24 uM): 0.105 | Z.LYZ.NS (ISC-enriched organoids [4]; Dose 0.24 uM): 0.838 | repSSMD.LYZ.NS (ISC-enriched organoids [4]; Dose 0.24 uM): 0.830 | Dose.FC.LYZ.NS (ISC-enriched organoids [4]; Dose 0.48 uM): −0.016 | Z.LYZ.NS (ISC-enriched organoids [4]; Dose 0.48 uM): −0.128 | repSSMD.LYZ.NS (ISC-enriched organoids [4]; Dose 0.48 uM): −0.149 | Dose.FC.LYZ.NS (ISC-enriched organoids [4]; Dose […]): 0.116
